According to patent publication US20150320700A1, “Geranium oil and constituents thereof for treatment of neurodegenerative diseases” (The State of Israel, Ministry of Agriculture & Ru ral …, priority 2012, published 2015):
Where a name gives a salt, the structure may show the parent alone.

Tests used:
[1] = biological target: T1, human erythrocytes' acetyl cholinesterase (Homo sapiens, UniProt P22303); experiment: acetyl cholinesterase fluorescent activity assay; format: biochemical; conditions: human erythrocytes' acetyl cholinesterase 25 mU/mL, FIGS. 2-4
T1 construct: from tissue; host or cells: human erythrocytes
Procedure: In this Example, Human erythrocytes acetyl cholinesterase (AChE) was incubated with different concentrations of geranium oil or each of its constituents.
In the results shown in FIG. 2, the different constituents were incubated with human erythrocytes' acetyl cholinesterase (25 mU/mL). The activity of acetyl cholinesterase was determined using a commercially available kit (acetyl cholinesterase fluorescent activity assay kit, Arbor assays).
Thus, inventors have tested the effect of both enantiomers on the enzymatic activity. […] The different enantiomers of citronellol were incubated with human erythrocytes' acetyl cholinesterase (25 mU/mL). The enzymatic activity was determined using a commercially available kit (acetyl cholinesterase fluorescent activity assay kit, Arbor assays).
In FIG. 4, different constituents of geranium oil (Geraniol, Citronellol (+) and Citronellol formate) were incubated with human erythrocytes' acetyl cholinesterase (25 mU/mL). The activity of acetyl cholinesterase was determined using a commercially available kit (acetyl cholinesterase fluorescent activity assay kit, Arbor assays).

primary microglial cells = experiment: peroxyl radical-induced oxidation of DCFH (ROS) in primary microglial cells; format: cell-based; conditions: microglial cells incubated 1 h with compound; ABAP 0.6 mM; FIG. 1
Procedure: Microglial cells were incubated for one h with (S)(−)citronellol (FIG. 1A) and (R)(+)citronellol (FIG. 1B). Primary cultures of microglial cells has been prepared according to Elmann et al., Journal of Functional Foods 2 (2010), pp. 18. As in Elmann et al. BMC Complementary and Alternative Medicine 2011, 11:98, the cultures of microglial cells were then preloaded with the non-fluorescent cell permeating compound, 2′7′-dichlorofluorescein diacetate (DCF-DA) for 30 min and washed with PBS, after which, 2,2′-Azobis(amidinopropane) (ABAP) (0.6 mM) was added and ROS levels were measured at the indicated time points. Each point on the graph represents mean±SEM of 2 experiments (n=8).

T1 sequence (P22303 32-617 isoform P22303-2 limits assumed): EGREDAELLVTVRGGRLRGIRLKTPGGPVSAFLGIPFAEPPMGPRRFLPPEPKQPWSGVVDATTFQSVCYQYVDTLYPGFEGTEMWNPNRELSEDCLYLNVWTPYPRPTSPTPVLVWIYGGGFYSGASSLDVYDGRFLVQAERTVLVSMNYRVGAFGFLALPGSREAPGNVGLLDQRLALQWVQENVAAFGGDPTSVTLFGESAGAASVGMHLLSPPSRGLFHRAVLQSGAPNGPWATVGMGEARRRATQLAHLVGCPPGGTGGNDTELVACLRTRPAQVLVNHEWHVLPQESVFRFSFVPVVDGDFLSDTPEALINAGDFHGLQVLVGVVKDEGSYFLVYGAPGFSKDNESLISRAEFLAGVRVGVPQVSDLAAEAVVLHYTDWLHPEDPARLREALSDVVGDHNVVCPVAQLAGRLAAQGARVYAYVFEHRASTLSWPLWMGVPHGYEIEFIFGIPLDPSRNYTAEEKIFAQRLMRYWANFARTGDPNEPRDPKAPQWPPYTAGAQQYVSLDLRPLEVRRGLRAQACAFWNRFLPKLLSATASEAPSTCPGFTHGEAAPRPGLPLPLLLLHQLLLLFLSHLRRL

SMILES	enzymatic activity of acetyl cholinesterase [1]	enzymatic activity of acetyl cholinesterase ([1]; listed as (S)(−)citronellol)	peroxyl radical-induced oxidation of DCFH (ROS levels) (primary microglial cells)	enzymatic activity of acetyl cholinesterase ([1]; listed as Citronellol (+))
CC(C)=CCC/C(C)=C/CO [geraniol, reference compound]	none of the constituents geraniol, Citronellol (+) and citronellol formate could inhibit AChE activity			
CC(C)=CCC[C@H](C)CCO [(S)(−)-citronellol]	inhibited the enzymatic activity	could inhibit the enzymatic activity	inhibit the peroxyl radical-induced oxidation of DCFH	
CC(C)=CCC[C@@H](C)CCO [(R)(+)citronellol, reference compound]	not (R)(+)citronellol could inhibit the enzymatic activity		inhibit the peroxyl radical-induced oxidation of DCFH	none of the constituents geraniol, Citronellol (+) and citronellol formate could inhibit AChE activity
CC(C)[C@H]1CC[C@@H](C)CC1=O [isomenthone]	inhibited the enzymatic activity			
CC(C)=CCCC(C)CCOC=O (centres unmarked) [citronellol formate, reference compound]	none of the constituents geraniol, Citronellol (+) and citronellol formate could inhibit AChE activity			
CC(C)[C@@H]1CC[C@@H](C)CC1=O [menthone]	inhibited the enzymatic activity			
C=CC(C)(O)CCC=C(C)C (centres unmarked) [linalool]	inhibited the enzymatic activity			
